According to patent US9452986B2, “6-heteroaryloxy- or 6-aryloxy-quinoline-2-carboxamides and method of use” (AbbVie Inc., priority 2014, dated 2016):
Like-named read-outs stand apart in the source and are kept apart here.

What was measured:
osteoarthritic rats = assay: Osteoarthritic (OA) pain induced by sodium monoiodoacetate (MIA), hind limb grip force; assay type: in vivo, rat; details: Rattus norvegicus, 480 h, read-out: OA MPE; for inhibition in vivo at 10 mg/kg: OA dose 10 mg/kg
How it was run: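 Activity-induced pain was read as maximum compressive hind limb grip force, two sequential trials normalized to body weight, 20 days after intra-articular MIA (3 mg/rat) in male Sprague Dawley rats. Randomized, blinded dosing; effect expressed as return toward naïve-animal response relative to vehicle.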

[1] = tested on: spinal nerve ligated rats; assay: Rat spinal nerve ligation (SNL) model of neuropathic pain, paw withdrawal threshold; assay type: in vivo; details: read-out: SNL MPE
Text: Rat Spinal Nerve Ligation (SNL) Model of Neuropathic Pain.
The male Sprague Dawley rats (Charles River Laboratories, Wilmington, Mass.), weighing 150-175 g at the time of surgery, were placed under isoflurane anesthesia and a 1.5 cm incision was made dorsal to the lumbosacral plexus. The paraspinal muscles (left side) were separated from the spinous processes, the left L5 and L6 spinal nerves isolated, and tightly ligated with 5-0 silk suture distal to the dorsal root ganglion. Care was taken to avoid ligating the L4 spinal nerve. Following spinal nerve ligation, a minimum of 7 days of recovery and no more than 3 weeks was allowed prior to the behavioral testing (mechanical sensitivity). Only rats with threshold scores ≦4.5 g were considered allodynic and utilized in pharmacological experiments.
Mechanical sensitivity was measured using calibrated von Frey filaments (Stoelting, Wood Dale, Ill.). […] The von Frey filaments were presented perpendicularly to the plantar surface of the selected hind paw, and then held in this position for approximately 8 seconds with enough force to cause a slight bend in the filament. Positive responses included an abrupt withdrawal of the hind paw from the stimulus, or flinching behavior immediately following removal of the stimulus. […] A percent maximal possible effect (% MPE) of testing compound was calculated according to the formula: (Log [compound−treated threshold]−Log [vehicle−treated threshold])/(Log [maximum threshold]−Log [vehicle−treated threshold])×100%, where the maximum threshold was equal to 15 g.
The animals were housed in Association for Assessment and Accreditation of Laboratory Animal Care (AAALAC) approved facilities at AbbVie Inc. in a temperature-regulated environment under a controlled 12-hour light-dark cycle, with lights on at 6:00 a.m. Food and water were available ad libitum at all times except during testing. All testing was done following procedures outlined in protocols approved by AbbVie Inc.s' Institutional Animal Care and Use Committee.

recombinant human Nav1.7 = recombinant human Nav1.7 (Homo sapiens (Human), UniProt Q15858); assay: FRET-based membrane potential assay, recombinant human sodium channel Nav1.7; assay type: cell-based; details: read-out: FRET-Membrane Potential Nav1.7 IC50
recombinant human Nav1.7, sequence (Q15858 whole entry): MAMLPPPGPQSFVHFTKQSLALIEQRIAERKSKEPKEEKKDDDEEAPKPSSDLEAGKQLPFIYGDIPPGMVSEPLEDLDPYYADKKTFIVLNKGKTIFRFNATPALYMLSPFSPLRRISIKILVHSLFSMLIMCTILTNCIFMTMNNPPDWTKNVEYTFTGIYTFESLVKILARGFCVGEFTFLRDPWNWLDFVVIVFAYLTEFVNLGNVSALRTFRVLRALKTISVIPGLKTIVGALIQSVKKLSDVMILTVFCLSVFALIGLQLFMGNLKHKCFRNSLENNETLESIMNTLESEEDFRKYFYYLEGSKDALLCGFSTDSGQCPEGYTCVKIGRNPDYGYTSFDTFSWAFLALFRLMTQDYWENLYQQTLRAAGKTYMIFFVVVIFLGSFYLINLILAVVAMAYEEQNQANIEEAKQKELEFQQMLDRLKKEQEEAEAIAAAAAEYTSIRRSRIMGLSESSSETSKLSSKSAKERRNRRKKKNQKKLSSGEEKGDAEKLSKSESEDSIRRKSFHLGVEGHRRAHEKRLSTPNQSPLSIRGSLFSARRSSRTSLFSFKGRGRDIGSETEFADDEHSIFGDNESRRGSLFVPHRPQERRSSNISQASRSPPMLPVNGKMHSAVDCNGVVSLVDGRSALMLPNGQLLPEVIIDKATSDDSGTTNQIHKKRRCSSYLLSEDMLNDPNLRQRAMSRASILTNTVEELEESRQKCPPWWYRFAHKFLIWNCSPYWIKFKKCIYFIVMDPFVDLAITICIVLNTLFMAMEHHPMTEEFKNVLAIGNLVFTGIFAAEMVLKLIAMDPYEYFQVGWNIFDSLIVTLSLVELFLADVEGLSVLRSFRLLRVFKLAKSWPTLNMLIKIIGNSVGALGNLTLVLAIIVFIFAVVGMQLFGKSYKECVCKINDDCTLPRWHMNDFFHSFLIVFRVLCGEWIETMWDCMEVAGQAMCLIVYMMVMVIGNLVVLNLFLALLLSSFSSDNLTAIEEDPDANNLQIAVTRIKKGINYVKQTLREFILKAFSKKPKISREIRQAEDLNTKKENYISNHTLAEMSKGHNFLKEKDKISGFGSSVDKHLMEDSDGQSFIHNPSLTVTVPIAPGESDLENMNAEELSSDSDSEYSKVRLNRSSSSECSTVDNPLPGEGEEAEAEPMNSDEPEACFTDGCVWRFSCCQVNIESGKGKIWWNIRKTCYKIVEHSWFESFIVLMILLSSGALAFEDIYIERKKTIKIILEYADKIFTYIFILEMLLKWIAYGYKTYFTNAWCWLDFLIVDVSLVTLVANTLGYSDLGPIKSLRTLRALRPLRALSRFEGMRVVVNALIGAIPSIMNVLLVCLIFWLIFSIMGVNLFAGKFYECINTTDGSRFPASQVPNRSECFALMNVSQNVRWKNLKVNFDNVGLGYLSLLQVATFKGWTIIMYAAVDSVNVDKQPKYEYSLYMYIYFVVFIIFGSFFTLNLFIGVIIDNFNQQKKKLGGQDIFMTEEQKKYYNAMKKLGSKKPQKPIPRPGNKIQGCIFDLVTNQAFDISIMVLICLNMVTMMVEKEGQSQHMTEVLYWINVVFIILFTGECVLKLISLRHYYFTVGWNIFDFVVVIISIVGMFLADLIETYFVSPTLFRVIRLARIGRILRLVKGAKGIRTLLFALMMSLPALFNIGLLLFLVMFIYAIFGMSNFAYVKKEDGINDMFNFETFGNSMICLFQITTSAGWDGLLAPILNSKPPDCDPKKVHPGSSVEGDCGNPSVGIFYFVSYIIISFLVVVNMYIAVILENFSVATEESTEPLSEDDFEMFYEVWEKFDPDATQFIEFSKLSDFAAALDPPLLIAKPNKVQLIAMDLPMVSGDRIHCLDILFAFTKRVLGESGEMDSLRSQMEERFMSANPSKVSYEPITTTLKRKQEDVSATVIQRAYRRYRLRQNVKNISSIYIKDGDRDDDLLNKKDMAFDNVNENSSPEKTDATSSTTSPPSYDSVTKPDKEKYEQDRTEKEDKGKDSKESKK
How it was run: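 Channel activation used veratridine at its EC80, set by a dilution curve each experiment, together with Leiurus scorpion venom, added 3 min after compound. Membrane-potential ratio signals from FLIPR Tetra in HEPES-buffered HBSS were fitted to a four-parameter Hill equation for percent inhibition and IC50.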

recombinant human Nav1.8 = recombinant human Nav1.8 (Homo sapiens (Human), UniProt Q9Y5Y9); assay: FRET-based membrane potential assay, recombinant human sodium channel Nav1.8; assay type: cell-based
recombinant human Nav1.8, sequence (Q9Y5Y9 whole entry): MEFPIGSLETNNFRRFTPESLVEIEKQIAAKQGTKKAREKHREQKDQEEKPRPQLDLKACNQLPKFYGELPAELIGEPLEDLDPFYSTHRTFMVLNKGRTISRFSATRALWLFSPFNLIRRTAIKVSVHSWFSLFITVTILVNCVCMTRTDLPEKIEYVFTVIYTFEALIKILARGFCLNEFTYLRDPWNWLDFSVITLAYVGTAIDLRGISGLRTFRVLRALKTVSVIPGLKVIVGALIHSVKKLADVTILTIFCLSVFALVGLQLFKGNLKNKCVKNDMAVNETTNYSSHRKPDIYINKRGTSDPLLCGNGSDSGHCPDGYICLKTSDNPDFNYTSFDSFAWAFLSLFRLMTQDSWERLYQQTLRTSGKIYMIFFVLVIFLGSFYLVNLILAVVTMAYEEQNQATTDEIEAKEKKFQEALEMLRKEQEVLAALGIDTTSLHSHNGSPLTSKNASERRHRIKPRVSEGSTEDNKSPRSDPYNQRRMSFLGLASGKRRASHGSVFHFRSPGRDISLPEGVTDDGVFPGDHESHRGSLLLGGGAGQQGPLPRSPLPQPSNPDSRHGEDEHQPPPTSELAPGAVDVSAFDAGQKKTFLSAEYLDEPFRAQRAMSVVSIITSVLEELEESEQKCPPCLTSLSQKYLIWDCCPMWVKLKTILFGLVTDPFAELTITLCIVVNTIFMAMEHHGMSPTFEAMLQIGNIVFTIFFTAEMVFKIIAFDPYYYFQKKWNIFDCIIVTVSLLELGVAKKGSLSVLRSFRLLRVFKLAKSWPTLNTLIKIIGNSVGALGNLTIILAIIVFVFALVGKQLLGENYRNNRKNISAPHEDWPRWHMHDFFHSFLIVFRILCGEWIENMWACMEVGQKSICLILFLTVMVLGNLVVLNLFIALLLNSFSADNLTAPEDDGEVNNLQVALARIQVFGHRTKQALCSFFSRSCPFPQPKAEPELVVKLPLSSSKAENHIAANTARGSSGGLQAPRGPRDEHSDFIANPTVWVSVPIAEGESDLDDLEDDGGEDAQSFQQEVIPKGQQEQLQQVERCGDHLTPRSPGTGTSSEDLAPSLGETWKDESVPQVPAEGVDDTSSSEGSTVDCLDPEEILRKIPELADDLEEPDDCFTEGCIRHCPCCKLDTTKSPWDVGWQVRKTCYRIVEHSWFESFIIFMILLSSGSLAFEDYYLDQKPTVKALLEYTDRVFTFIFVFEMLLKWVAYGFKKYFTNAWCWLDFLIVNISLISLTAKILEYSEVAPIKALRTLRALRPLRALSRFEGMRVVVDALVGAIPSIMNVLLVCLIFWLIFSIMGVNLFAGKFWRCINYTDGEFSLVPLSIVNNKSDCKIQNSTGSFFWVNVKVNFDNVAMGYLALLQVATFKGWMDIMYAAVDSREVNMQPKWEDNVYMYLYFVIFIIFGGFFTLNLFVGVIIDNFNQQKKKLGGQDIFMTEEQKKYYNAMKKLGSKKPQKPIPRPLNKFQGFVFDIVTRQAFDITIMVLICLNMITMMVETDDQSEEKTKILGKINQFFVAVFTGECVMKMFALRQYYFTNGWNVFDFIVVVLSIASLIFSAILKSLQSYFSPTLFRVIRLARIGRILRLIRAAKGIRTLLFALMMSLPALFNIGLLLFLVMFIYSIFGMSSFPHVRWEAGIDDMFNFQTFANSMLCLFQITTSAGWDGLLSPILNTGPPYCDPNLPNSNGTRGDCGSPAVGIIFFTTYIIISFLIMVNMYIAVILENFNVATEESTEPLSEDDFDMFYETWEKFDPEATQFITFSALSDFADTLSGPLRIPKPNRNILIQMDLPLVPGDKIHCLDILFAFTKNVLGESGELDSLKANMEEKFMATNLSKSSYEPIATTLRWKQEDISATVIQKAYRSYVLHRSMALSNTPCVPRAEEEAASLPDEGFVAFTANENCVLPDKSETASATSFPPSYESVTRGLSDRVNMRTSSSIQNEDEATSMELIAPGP

[2] = OA dose 30 mg/kg, rat, 20 days following MIA injection, hind limb grip force
[3] = SNL dose 100 mg/kg, rat, von Frey paw withdrawal threshold
[4] = HEK293 cells stably expressing recombinant human Nav1.7, veratridine + scorpion venom depolarization
[5] = HEK293 cells stably expressing recombinant human Nav1.8, veratridine + scorpion venom depolarization
[6] = rat, 20 days following MIA injection, hind limb grip force

Row | Compound | inhibition in vivo at 30 mg/kg (osteoarthritic rats; [2]) [%] | inhibition in vivo at 100 mg/kg [1, 3] [%] | IC50 (recombinant human Nav1.7; [4]) [nM] | IC50 (recombinant human Nav1.8; [5]) [nM] | inhibition in vivo at 10 mg/kg (osteoarthritic rats; [6]) [%] | IC50 (recombinant human Nav1.8) [nM] | inhibition in vivo at 30 mg/kg (osteoarthritic rats) [%] | inhibition in vivo at 100 mg/kg ([1]; Rattus norvegicus) [%] | IC50 (recombinant human Nav1.7) [nM]
1 | O=C(c1ccc2cc(Oc3ccc(C(F)(F)F)cn3)ccc2n1)N1CCNCC1 [Example 1, piperazin-1-yl(6-{[5-(trifluoromethyl)pyridin-2-yl]oxy}quinolin-2-yl)methanone] | 64 | 49 | – | – | – | – | – | – | –
2 | O=C(NC1CCS(=O)(=O)C1)c1ccc2cc(Oc3ccc(C(F)(F)F)cn3)ccc2n1 (stereo not shown) [Example 2, N-(1,1-dioxidotetrahydrothiophen-3-yl)-6-{[5-(trifluoromethyl)pyridin-2-yl]oxy}quinoline-2-carboxamide] | 85 | 54 | 504 | 648 | – | – | – | – | –
3 | O=C(N[C@H]1CCS(=O)(=O)C1)c1ccc2cc(Oc3ccc(C(F)(F)F)cn3)ccc2n1 [Example 4, N-[(3S)-1,1-dioxidotetrahydrothiophen-3-yl]-6-{[5-(trifluoromethyl)pyridin-2-yl]oxy}quinoline-2-carboxamide] | 60 | 56 | 856 | – | – | – | – | – | –
4 | O=C(c1ccc2cc(Oc3ccc(C(F)(F)F)cn3)ccc2n1)N1CC(N2CCOCC2)C1 [Example 6, [3-(morpholin-4-yl)azetidin-1-yl](6-{[5-(trifluoromethyl)pyridin-2-yl]oxy}quinolin-2-yl)methanone] | – | 27 | 2930 | – | 72 | 4610 | – | – | –
5 | O=C(c1ccc2cc(Oc3ccc(C(F)(F)F)cn3)ccc2n1)N1CCCC1 [Example 10, pyrrolidin-1-yl(6-{[5-(trifluoromethyl)pyridin-2-yl]oxy}quinolin-2-yl)methanone] | – | – | – | – | – | – | 48 | 35 | –
6 | O=C(c1ccc2cc(Oc3ccc(C(F)(F)F)cn3)ccc2n1)N1CCC(N2CCOCC2)CC1 [Example 11, [4-(morpholin-4-yl)piperidin-1-yl](6-{[5-(trifluoromethyl)pyridin-2-yl]oxy}quinolin-2-yl)methanone] | – | 34 | 1610 | 1690 | 72 | – | – | – | –
7 | O=C(c1ccc2cc(Oc3ccc(C(F)F)cn3)ccc2n1)N1CCNCC1 [Example 14, (6-{[5-(difluoromethyl)pyridin-2-yl]oxy}quinolin-2-yl)(piperazin-1-yl)methanone] | 81 | 44 | – | – | – | – | – | – | –
8 | COCCNC(=O)c1ccc2cc(Oc3ccc(C(F)(F)F)cn3)ccc2n1 [Example 22, N-(2-methoxyethyl)-6-{[5-(trifluoromethyl)pyridin-2-yl]oxy}quinoline-2-carboxamide] | 73 | 72 | 1980 | 3540 | – | – | – | – | –
9 | COC[C@H]1CN(C(=O)c2ccc3cc(Oc4ccc(C(F)(F)F)cn4)ccc3n2)CCN1 [Example 31, [(3R)-3-(methoxymethyl)piperazin-1-yl](6-{[5-(trifluoromethyl)pyridin-2-yl]oxy}quinolin-2-yl)methanone] | 94 | 64 | – | 1860 | – | – | – | – | 619
10 | CN(C)C(=O)CNC(=O)c1ccc2cc(Oc3ccc(C(F)(F)F)cn3)ccc2n1 [Example 33, N-[2-(dimethylamino)-2-oxoethyl]-6-{[5-(trifluoromethyl)pyridin-2-yl]oxy}quinoline-2-carboxamide] | 61 | 50 | – | – | – | 740 | – | – | 471
11 | O=C(c1ccc2cc(Oc3ccc(C(F)(F)F)cn3)ccc2n1)N1CCC(F)C1 (stereo not shown) [Example 35, (3-fluoropyrrolidin-1-yl)(6-{[5-(trifluoromethyl)pyridin-2-yl]oxy}quinolin-2-yl)methanone] | – | 74 | 1270 | – | 79 | – | – | – | –
12 | O=C(c1ccc2cc(Oc3ccc(C(F)(F)F)cn3)ccc2n1)N1C[C@@H](F)C[C@H]1CO [Example 50, [(2S,4S)-4-fluoro-2-(hydroxymethyl)pyrrolidin-1-yl](6-{[5-(trifluoromethyl)pyridin-2-yl]oxy}quinolin-2-yl)methanone] | 81 | 94 | 12200 | – | – | – | – | – | –
13 | O=C(c1ccc2cc(Oc3ccc(C(F)(F)F)cn3)ccc2n1)N1CC[C@H](F)C1 [Example 51, [(3S)-3-fluoropyrrolidin-1-yl](6-{[5-(trifluoromethyl)pyridin-2-yl]oxy}quinolin-2-yl)methanone] | 52 | 90 | 2250 | – | – | – | – | – | –
14 | O=C(c1ccc2cc(Oc3ccc(C(F)(F)F)cn3)ccc2n1)N1CC[C@@H](F)C1 [Example 52, [(3R)-3-fluoropyrrolidin-1-yl](6-{[5-(trifluoromethyl)pyridin-2-yl]oxy}quinolin-2-yl)methanone] | 86 | 81 | 2980 | – | – | – | – | – | –
15 | O=C(NC1CC(F)(F)C1)c1ccc2cc(Oc3ccc(C(F)(F)F)cn3)ccc2n1 [Example 59, N-(3,3-difluorocyclobutyl)-6-{[5-(trifluoromethyl)pyridin-2-yl]oxy}quinoline-2-carboxamide] | 83 | 84 | – | – | – | – | – | – | 1700
16 | O=C(c1ccc2cc(Oc3ccc(C(F)(F)F)cn3)ccc2n1)N1CC(N2CC[C@@H](F)C2)C1 [Example 70, {3-[(3R)-3-fluoropyrrolidin-1-yl]azetidin-1-yl}(6-{[5-(trifluoromethyl)pyridin-2-yl]oxy}quinolin-2-yl)methanone] | – | – | – | – | 23 | 821 | – | – | 1250
17 | COC[C@H]1CN(C(=O)c2ccc3cc(Oc4ccc(C(F)F)cn4)ccc3n2)CCN1 [Example 71, (6-{[5-(difluoromethyl)pyridin-2-yl]oxy}quinolin-2-yl) [(3R)-3-(methoxymethyl)piperazin-1-yl]methanone] | – | – | 1810 | 1640 | 33 | – | – | – | –
18 | O=C(c1ccc2cc(Oc3ccc(OC(F)(F)F)cn3)ccc2n1)N1CC[C@@H](F)C1 [Example 301, [(3R)-3-fluoropyrrolidin-1-yl](6-{[5-(trifluoromethoxy)pyridin-2-yl]oxy}quinolin-2-yl)methanone] | 58 | – | 3120 | 1400 | – | – | – | – | –
19 | O=C(NCC(F)(F)F)c1ccc2cc(Oc3ccc(C(F)(F)F)cn3)ccc2n1 [Example 344, N-(2,2,2-trifluoroethyl)-6-{[5-(trifluoromethyl)pyridin-2-yl]oxy}quinoline-2-carboxamide] | 59 | 76 | 2100 | 670 | – | – | – | – | –
20 | O=C(NCC(F)(F)F)c1ccc2cc(Oc3ccc(C(F)F)cn3)ccc2n1 [Example 436, 6-{[5-(difluoromethyl)pyridin-2-yl]oxy}-N-(2,2,2-trifluoroethyl)quinoline-2-carboxamide] | 51 | – | 1740 | 3420 | – | – | – | – | –
21 | O=C(c1ccc2cc(Oc3ccc(C(F)(F)F)cn3)ccc2n1)N1CCC12COC2 [Example 505, 6-oxa-1-azaspiro[3.3]hept-1-yl(6-{[5-(trifluoromethyl)pyridin-2-yl]oxy}quinolin-2-yl)methanone] | – | – | 4940 | 2300 | – | – | 52 | – | –
22 | O=C(c1ccc2cc(Oc3ccc(C(F)(F)F)cn3)ccc2n1)N1CC(OCC(F)F)C1 [Example 619, [3-(2,2-difluoroethoxy)azetidin-1-yl](6-{[5-(trifluoromethyl)pyridin-2-yl]oxy}quinolin-2-yl)methanone] | 53 | – | 2880 | 2910 | – | – | – | – | –
